# According to patent publication US20250312469A1 (CANGET BIOTEKPHARMA, priority 2024, published 2025):
# Entries after “also recorded” stand apart in the source; their conditions may differ.
# Assays:
# in vivo = conditions: female, SCID, mouse; for Tmax / half-life: po
# [1] = PK after single i.v. dose in tumor bearing mice
# UbE2T = biological target: T1, UbE2T (Homo sapiens, UniProt Q9NPD8); assay: UbE2T protein (WB) and mRNA (RT-PCR) in PCa cells; assay type: cell-based; parameters: purchased Invitrogen ProtoArray Human Protein Microarray v5.0
# T1 sequence (Q9NPD8 1-197): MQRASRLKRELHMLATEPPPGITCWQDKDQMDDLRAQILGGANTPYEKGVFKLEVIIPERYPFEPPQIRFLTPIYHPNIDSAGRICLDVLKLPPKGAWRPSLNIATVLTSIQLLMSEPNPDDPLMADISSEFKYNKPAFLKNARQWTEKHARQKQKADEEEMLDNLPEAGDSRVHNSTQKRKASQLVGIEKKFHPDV
# hERG = hERG (Homo sapiens, UniProt Q12809); assay: cell-based
# Procedure: All cell suspensions, buffers, and test compound solutions were at room temperature during the experiment. Briefly, Chinese hamster ovary (CHO) cells stably transfected with hERG (cell line obtained from Cytomyx, UK) were seeded in each well of a PatchPlate™ positioned over a small hole at the bottom of each well to form an electrical seal. The resistance of each seal was measured via a common ground electrode in the intracellular compartment and individual electrodes placed into each of the upper wells. Electrical access to the cell was then achieved by circulating a perforating agent, amphotericin B, underneath the PatchPlate™. The hERG channels were activated by applying a depolarizing step to +40 mV for 5 s and then clamped at […] for 4 s to elicit the hERG tail current, before returning to […] for 0.3 s. […] Each concentration was tested in 4 replicate wells on the PatchPlate™.
# All cell suspensions, buffers and test compound solutions were at room temperature during the experiment. (2) The cells used were Chinese hamster ovary (CHO) cells stably transfected with hERG (cell line obtained from Cytomyx, UK). A single cell suspension was prepared in extracellular solution (Dulbecco's phosphate buffered saline with calcium and magnesium pH 7.2) and aliquots added automatically to each well of a PatchPlate™. The cells were then positioned over a small hole at the bottom of each well by applying a vacuum beneath the plate to form an electrical seal. The vacuum was applied through a single compartment common to all wells which was filled with intracellular solution (buffered to pH 7.2 with HEPES). The resistance of each seal was measured via a common ground electrode in the intracellular compartment and individual electrodes placed into each of the upper wells. Electrical access to the cell was then achieved by circulating a perforating agent, amphotericin B, underneath the PatchPlate™. (3) The pre compound hERG current was then measured. […] The hERG channels were then activated by applying a depolarizing step to +40 mV for 5 sec and then clamped at […] for 4 sec to elicit the hERG tail current, before returning to […] for 0.3 sec. […] (5) The IonWorks™ HT instrument automatically added test compound dilutions to the upper wells of the PatchPlate™ from a 96 well microtitre plate. The test compound was left in contact with the cells for 300 sec before recording currents using the same voltage step protocol as in the pre compound scan. […] (6) Each concentration was tested in 4 replicate wells on the PatchPlate™ (maximum of 24 data points).
# The percentage inhibition was calculated using the following equation: […]
# CYP2B6 = biological target: T2, CYP2B6 (Homo sapiens, UniProt P20813); assay: in vitro
# T2 sequence (P20813 1-491): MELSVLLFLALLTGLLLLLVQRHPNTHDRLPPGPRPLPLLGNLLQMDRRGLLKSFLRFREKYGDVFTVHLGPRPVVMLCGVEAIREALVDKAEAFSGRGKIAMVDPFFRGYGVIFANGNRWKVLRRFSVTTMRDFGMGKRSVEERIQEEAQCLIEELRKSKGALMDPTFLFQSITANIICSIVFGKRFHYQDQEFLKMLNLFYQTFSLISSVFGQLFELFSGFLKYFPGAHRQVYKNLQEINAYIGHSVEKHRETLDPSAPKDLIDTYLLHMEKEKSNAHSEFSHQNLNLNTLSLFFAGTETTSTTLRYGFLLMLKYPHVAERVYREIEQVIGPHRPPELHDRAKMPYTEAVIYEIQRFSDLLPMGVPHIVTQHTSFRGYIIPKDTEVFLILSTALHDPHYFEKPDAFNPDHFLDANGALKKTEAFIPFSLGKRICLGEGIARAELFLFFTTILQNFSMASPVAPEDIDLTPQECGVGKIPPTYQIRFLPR
# Procedure: (§1) The CYP reaction was initiated by adding a CYP probe substrate and incubating at 37° C. for 10-20 minutes, depending on the individual CYP isoform. The reaction was terminated with the addition of 400 μL ice-cold acetonitrile (ACN). […] Positive controls were performed in parallel using a known inhibitor of the individual CYP isoform. […] The samples were then transferred to 96-well plates and analyzed by LC-MS/MS (Appendix 1).
# CYP1A2 = CYP1A2 (Homo sapiens, UniProt P05177); assay: in vitro
# Procedure: as §1
# CYP3A = assay: in vitro
# Procedure: as §1
# [2] = PK after single oral dose in tumor bearing mice
# [3] = HT29 tumor, single oral dose […]
# [4] = SW620 tumor, single oral dose […]
# [5] = mouse plasma, single oral dose […]
# hERG, sequence (Q12809 whole entry): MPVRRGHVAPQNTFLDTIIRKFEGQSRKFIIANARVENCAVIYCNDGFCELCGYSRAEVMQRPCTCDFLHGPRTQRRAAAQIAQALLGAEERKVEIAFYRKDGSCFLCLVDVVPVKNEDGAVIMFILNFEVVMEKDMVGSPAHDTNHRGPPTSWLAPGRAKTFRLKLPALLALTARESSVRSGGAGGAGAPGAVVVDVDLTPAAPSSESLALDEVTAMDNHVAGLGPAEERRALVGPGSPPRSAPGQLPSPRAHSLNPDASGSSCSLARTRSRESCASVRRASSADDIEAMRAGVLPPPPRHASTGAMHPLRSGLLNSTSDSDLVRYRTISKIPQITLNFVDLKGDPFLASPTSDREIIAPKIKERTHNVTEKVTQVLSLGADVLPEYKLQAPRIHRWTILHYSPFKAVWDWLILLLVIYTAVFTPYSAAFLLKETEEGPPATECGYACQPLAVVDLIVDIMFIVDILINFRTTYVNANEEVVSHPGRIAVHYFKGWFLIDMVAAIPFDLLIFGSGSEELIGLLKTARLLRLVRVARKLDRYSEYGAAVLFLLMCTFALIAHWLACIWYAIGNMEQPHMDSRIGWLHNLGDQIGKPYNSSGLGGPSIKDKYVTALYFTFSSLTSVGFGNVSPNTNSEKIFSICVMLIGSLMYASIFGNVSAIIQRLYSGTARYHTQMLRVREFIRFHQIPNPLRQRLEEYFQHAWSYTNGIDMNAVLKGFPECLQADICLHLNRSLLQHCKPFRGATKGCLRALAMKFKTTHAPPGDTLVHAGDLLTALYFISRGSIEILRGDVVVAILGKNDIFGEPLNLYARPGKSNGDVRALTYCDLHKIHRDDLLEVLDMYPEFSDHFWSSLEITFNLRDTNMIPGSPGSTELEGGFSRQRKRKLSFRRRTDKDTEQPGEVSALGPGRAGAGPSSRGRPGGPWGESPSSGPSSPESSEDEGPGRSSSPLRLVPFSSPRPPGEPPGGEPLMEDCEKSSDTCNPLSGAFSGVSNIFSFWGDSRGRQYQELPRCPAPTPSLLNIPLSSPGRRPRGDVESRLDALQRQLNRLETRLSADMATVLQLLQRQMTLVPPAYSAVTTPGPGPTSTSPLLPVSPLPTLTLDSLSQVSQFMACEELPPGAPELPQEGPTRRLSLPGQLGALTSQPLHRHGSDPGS
# CYP1A2, sequence (P05177 whole entry): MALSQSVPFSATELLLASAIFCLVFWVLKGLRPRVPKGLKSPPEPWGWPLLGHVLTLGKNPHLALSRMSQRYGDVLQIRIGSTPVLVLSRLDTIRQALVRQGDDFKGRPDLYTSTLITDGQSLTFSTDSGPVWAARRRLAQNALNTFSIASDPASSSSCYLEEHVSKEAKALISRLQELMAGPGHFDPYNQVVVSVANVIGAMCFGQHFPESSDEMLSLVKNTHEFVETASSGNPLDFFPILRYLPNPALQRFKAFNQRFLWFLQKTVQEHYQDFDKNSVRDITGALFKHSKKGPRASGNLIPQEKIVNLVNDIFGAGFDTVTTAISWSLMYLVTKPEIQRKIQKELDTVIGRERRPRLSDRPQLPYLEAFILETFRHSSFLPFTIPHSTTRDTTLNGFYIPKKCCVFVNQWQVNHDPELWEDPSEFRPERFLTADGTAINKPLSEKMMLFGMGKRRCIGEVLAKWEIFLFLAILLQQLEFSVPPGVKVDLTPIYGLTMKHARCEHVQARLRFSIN
compound,measurement,setting,value
CCC1(O)C(=O)OCc2c1cc1n(c2=O)Cc2cc3cc4c(cc3nc2-1)OCO4 (stereo not drawn) [FL118],Tmax,in vivo; HT29 tumor,1 h
same,half-life,in vivo; HT29 tumor,4.24 h
same,Tmax,in vivo; SW620 tumor,1 h
same,half-life,in vivo; SW620 tumor,2.99 h
same,bioavailability,"in vivo; plasma, oral",84.6%
same,Tmax,in vivo; plasma,0.5 h
same,half-life,in vivo; plasma,5.12 h
same,Vz,[1]; FaDu tumor,33052 g/kg
same,Vz,[1]; SW620 tumor,30742 g/kg
same,UbE2T mRNA,UbE2T,without inhibiting its mRNA levels
same,UbE2T protein,UbE2T,inhibits UbE2T protein in a dose- and time-dependent manner
same,IC50,hERG,> 1000 nM
same,effect on hERG activity,"hERG; CHO cells stably transfected with hERG, FL118 3-1000 nM",no inhibitory effects; also recorded: does not exhibit an inhibition of hERG activity
same,"inhibition at 300 s, 0.003 µM","hERG; human, pH 7.2",14.8%
same,"inhibition at 300 s, 0.01 µM","hERG; human, pH 7.2",18.7%
same,"inhibition at 300 s, 0.03 µM","hERG; human, pH 7.2",5.6%
same,"inhibition at 300 s, 0.1 µM","hERG; human, pH 7.2",-5.2%
same,"inhibition at 300 s, 0.3 µM","hERG; human, pH 7.2",-2.9%
same,"inhibition at 300 s, 1 µM","hERG; human, pH 7.2",19.9%
same,CYP2B6 inhibition,CYP2B6; 1 μM,does not inhibit these 3 CYP isoforms
same,inhibition at 1 µM,"CYP2B6; human, microsomes, pH 7.4",0%
same,CYP1A2 inhibition,CYP1A2; 1 μM,does not inhibit these 3 CYP isoforms
same,inhibition at 1 µM,"CYP1A2; human, microsomes, pH 7.4",0.1%
same,CYP3A inhibition,"CYP3A; 1 μM, testosterone probe",does not inhibit these 3 CYP isoforms
same,inhibition at 1 µM,"CYP3A; human, microsomes, pH 7.4",0%
same,whole blood partitioning,Blood partitioning; 1 μM,favorable whole blood partitioning results
same,RBC to Plasma Partitioning (KRBC/P),Blood partitioning; human whole blood,1.04
same,Cl,[2]; [3],"8,440 g/hr/kg"
same,Tmax,[2]; [3],1.00 h
same,VD,[2]; [3],"51,700 g/kg"
same,t1/2,[2]; [3],4.24 h
same,Cl,"[2]; HT29 tumor, p.o. […]","8,440 g/hr/kg"
same,VD,"[2]; HT29 tumor, p.o. […]","51,700 g/kg"
same,Cl,[2]; [4],"6,710 g/hr/kg"
same,Tmax,[2]; [4],1.00 h
same,VD,[2]; [4],"28,900 g/kg"
same,t1/2,[2]; [4],2.99 h
same,Cl,"[2]; SW620 tumor, p.o. […]","6,710 g/hr/kg"
same,VD,"[2]; SW620 tumor, p.o. […]","28,900 g/kg"
same,concentration that can be reached in cancer cells,[2]; from the PK studies,≤ 25 nM
same,Cl,[2]; [5],"17,000 mL/hr/kg"
same,Tmax,[2]; [5],0.500 h
same,VD,[2]; [5],"126,000 mL/kg"
same,t1/2,[2]; [5],5.12 h
same,"FL118 concentration, individual mice","[2]; plasma, 1.0 h, single oral dose […]",19.1 ng/mL
same,"FL118 concentration, individual mice","[2]; plasma, 4.0 h, single oral dose […]",4.78 ng/mL
same,Cl,"[2]; plasma, p.o. […]","17,000 mL/hr/kg"
same,VD,"[2]; plasma, p.o. […]","126,000 mL/kg"
